US20200315176A1, “FUNGICIDAL COMPOSITIONS” (SYNGENTA PARTICIPATIONS AG, priority 2017, published 2020)

What was measured:
[1] = system: Puccinia recondita f. sp. tritici; assay: Example A1: fungicidal activity against Puccinia recondita f. sp. tritici / wheat / leaf disc preventative (brown rust); format: in vivo; details: foliar, 200 ppm in the applied formulation, wheat leaf segments, compared to untreated, read-out: disease control
Description: (§1) Leaf disks or leaf segments of various plant species are cut from plants grown in a greenhouse. The cut leaf disks or segments are placed in multiwell plates (24-well format) onto water agar. The leaf disks are sprayed with a test solution before (preventative) or after (curative) inoculation. Compounds to be tested are prepared as DMSO solutions (max. 10 mg/mL) which are diluted to the appropriate concentration with 0.025% Tween20 just before spraying. The inoculated leaf disks or segments are incubated under defined conditions (temperature, relative humidity, light, etc.) according to the respective test system. A single evaluation of disease level is carried out 3 to 14 days after inoculation, depending on the pathosystem. Percent disease control relative to the untreated check leaf disks or segments is then calculated.
Wheat leaf segments cv. Kanzler were placed on agar in multiwell plates (24-well format) and sprayed with the formulated test compound diluted in water. The leaf disks were inoculated with a spore suspension of the fungus 1 day after application. The inoculated leaf segments were incubated at 19° C. and 75% relative humidity (rh) under a light regime of 12 hours light/12 hours darkness in a climate cabinet and the activity of a compound was assessed as percent disease control compared to untreated when an appropriate level of disease damage appears in untreated check leaf segments (7 to 9 days after application).

[2] = system: Puccinia recondita f. sp. tritici; assay: Example A2: fungicidal activity against Puccinia recondita f. sp. tritici / wheat / leaf disc curative (brown rust); format: in vivo; details: foliar, 24 h, 200 ppm in the applied formulation, curative (applied 1 day after inoculation), wheat leaf segments, read-out: disease control
Description: as §1
Wheat leaf segments cv. Kanzler are placed on agar in multiwell plates (24-well format). The leaf segments are then inoculated with a spore suspension of the fungus. Plates were stored in darkness at 19° C. and 75% relative humidity. The formulated test compound diluted in water was applied 1 day after inoculation. The leaf segments were incubated at 19° C. and 75% relative humidity under a light regime of 12 hours light/12 hours darkness in a climate cabinet and the activity of a compound was assessed as percent disease control compared to untreated when an appropriate level of disease damage appears in untreated check leaf segments (6 to 8 days after application).

Phakopsora pachrhizi = assay: Example A3: fungicidal activity against Phakopsora pachrhizi / soybean / leaf disc preventative (Asian soybean rust); format: in vivo; details: Phakopsora pachyrhizi, foliar, 200 ppm in the applied formulation, soybean leaf disks, read-out: disease control
Description: as §1
Soybean leaf disks are placed on water agar in multiwell plates (24-well format) and sprayed with the formulated test compound diluted in water. One day after application leaf discs are inoculated by spraying a spore suspension on the lower leaf surface. After an incubation period in a climate cabinet of 24-36 hours in darkness at 20° C. and 75% rh leaf disc are kept at 20° C. with 12 h light/day and 75% rh. The activity of a compound is assessed as percent disease control compared to untreated when an appropriate level of disease damage appears in untreated check leaf disks (12 to 14 days after application).

[3] = system: Glomerella lagenarium (Colletotrichum lagenarium); assay: Example A4: fungicidal activity against Glomerella lagenarium (Colletotrichum lagenarium) liquid culture / cucumber / preventative (anthracnose); format: cell-based; details: Colletotrichum orbiculare, 20 ppm in the applied formulation, growth measured photometrically 3 to 4 days after application, read-out: disease control
Description: Mycelia fragments or conidia suspensions of a fungus prepared either freshly from liquid cultures of the fungus or from cryogenic storage, are directly mixed into nutrient broth. DMSO solutions of the test compound (max. 10 mg/mL) are diluted with 0.025% Tween20 by a factor of 50 and 10 μL of this solution is pipetted into a microtiter plate (96-well format). The nutrient broth containing the fungal spores/mycelia fragments is then added to give an end concentration of the tested compound. The test plates are incubated in the dark at 24° C. and 96% relative humidity. The inhibition of fungal growth is determined photometrically after 2 to 7 days, depending on the pathosystem, and percent antifungal activity relative to the untreated check is calculated. Conidia of the fungus from cryogenic storage are directly mixed into nutrient broth (PDB—potato dextrose broth). After placing a (DMSO) solution of test compound into a microtiter plate (96-well format), the nutrient broth containing the fungal spores is added.

| SMILES | melting point [°C] | pest or weed control at 200 ppm [1] [%] | pest or weed control at 200 ppm [2] [%] | pest or weed control at 200 ppm (Phakopsora pachrhizi) [%] | inhibition of growth at 20 ppm [3] [%] |
| --- | --- | --- | --- | --- | --- |
| FC(F)(F)c1nc(-c2ccc(Cn3nnc4cccnc43)cc2)no1 [X.11, 3-[4-(triazolo[4,5-b]pyridin-3-ylmethyl)phenyl]-5-(trifluoromethyl)-1,2,4-oxadiazole] | 143 to 144 | ≥ 80 | ≥ 80 | ≥ 80 | ≥ 80 |
| NC(=O)c1cnn(Cc2ccc(-c3noc(C(F)(F)F)n3)cc2)c1 [X.19, 1-[[4-[5-(trifluoromethyl)-1,2,4-oxadiazol-3-yl]phenyl]methyl]pyrazole-4-carboxamide] | – | ≥ 80 | ≥ 80 | ≥ 80 | ≥ 80 |
| N#Cc1ncnn1Cc1ccc(-c2noc(C(F)(F)F)n2)cc1 [X.02, 2-[[4-[5-(trifluoromethyl)-1,2,4-oxadiazol-3-yl]phenyl]methyl]-1,2,4-triazole-3-carbonitrile] | – | ≥ 80 | ≥ 80 | ≥ 80 | ≥ 80 |
| CON=Cc1cnn(Cc2ccc(-c3noc(C(F)(F)F)n3)cc2)c1 [X.20, N-methoxy-1-[1-[[4-[5-(trifluoromethyl)-1,2,4-oxadiazol-3-yl]phenyl]methyl]pyrazol-4-yl]methanimine] | – | ≥ 80 | ≥ 80 | ≥ 80 | ≥ 80 |
| CCSc1ncnn1Cc1ccc(-c2noc(C(F)(F)F)n2)cc1 [X.08, 3-[4-[(5-ethylsulfanyl-1,2,4-triazol-1-yl)methyl]phenyl]-5-(trifluoromethyl)-1,2,4-oxadiazole] | – | ≥ 80 | ≥ 80 | ≥ 80 | ≥ 80 |
| CCOC(=O)c1cnn(Cc2ccc(-c3noc(C(F)(F)F)n3)cc2)c1 [X.03, ethyl 1-[[4-[5-(trifluoromethyl)-1,2,4-oxadiazol-3-yl]phenyl]methyl]pyrazole-4-carboxylate] | – | ≥ 80 | ≥ 80 | ≥ 80 | ≥ 80 |
| CN(C)c1ncn(Cc2ccc(-c3noc(C(F)(F)F)n3)cc2)n1 [X.07, N,N-dimethyl-1-[[4-[5-(trifluoromethyl)-1,2,4-oxadiazol-3-yl]phenyl]methyl]-1,2,4-triazol-3-amine] | – | ≥ 80 | ≥ 80 | ≥ 80 | ≥ 80 |
| FC(F)(F)c1nc(-c2ccc(Cn3nnc4ncccc43)cc2)no1 [X.09, 3-[4-(triazolo[4,5-b]pyridin-1-ylmethyl)phenyl]-5-(trifluoromethyl)-1,2,4-oxadiazole] | – | ≥ 80 | ≥ 80 | ≥ 80 | ≥ 80 |
| CCOC(=O)c1cnn(C(C)c2ccc(-c3noc(C(F)(F)F)n3)cc2)c1 (centres unmarked) [X.21, ethyl 1-[1-[4-[5-(trifluoromethyl)-1,2,4-oxadiazol-3-yl]phenyl]ethyl]pyrazole-4-carboxylate] | – | ≥ 80 | ≥ 80 | ≥ 80 | ≥ 80 |

Now from value to compound, other results behind:

| melting point [°C] | SMILES | pest or weed control at 200 ppm [1] [%] | pest or weed control at 200 ppm [2] [%] | pest or weed control at 200 ppm (Phakopsora pachrhizi) [%] | inhibition of growth at 20 ppm [3] [%] |
| --- | --- | --- | --- | --- | --- |
| 131 to 135 | CCOC(=O)c1cnn(Cc2ccc(-c3noc(C(F)(F)F)n3)c(F)c2)c1 [X.13, ethyl 1-[[3-fluoro-4-[5-(trifluoromethyl)-1,2,4-oxadiazol-3-yl]phenyl]methyl]pyrazole-4-carboxylate] | ≥ 80 | – | ≥ 80 | ≥ 80 |
| 121 to 122 | FC(F)(F)c1nc(-c2ccc(Cn3nc4cccnc4n3)cc2)no1 [X.10, 3-[4-(triazolo[4,5-b]pyridin-2-ylmethyl)phenyl]-5-(trifluoromethyl)-1,2,4-oxadiazole] | ≥ 80 | ≥ 80 | ≥ 80 | ≥ 80 |
| 156 to 161 | CNC(=O)c1cnn(Cc2ccc(-c3noc(C(F)(F)F)n3)cc2)c1 [X.06, N-methyl-1-[[4-[5-(trifluoromethyl)-1,2,4-oxadiazol-3-yl]phenyl]methyl]pyrazole-4-carboxamide] | ≥ 80 | ≥ 80 | ≥ 80 | ≥ 80 |
| 68.2 to 70.1 | FC(F)(F)c1ncn(Cc2ccc(-c3noc(C(F)(F)F)n3)cc2)n1 [X.01, 5-(trifluoromethyl)-3-[4-[[3-(trifluoromethyl)-1,2,4-triazol-1-yl]methyl]phenyl]-1,2,4-oxadiazole] | ≥ 80 | ≥ 80 | ≥ 80 | ≥ 80 |
| 105 to 115 | CCCOC(=O)c1cnn(Cc2ccc(-c3noc(C(F)(F)F)n3)cc2)c1 [X.16, propyl 1-[[4-[5-(trifluoromethyl)-1,2,4-oxadiazol-3-yl]phenyl]methyl]pyrazole-4-carboxylate] | ≥ 80 | ≥ 80 | ≥ 80 | ≥ 80 |
| 122 to 129 | COC(=O)c1cnn(Cc2ccc(-c3noc(C(F)(F)F)n3)cc2)c1 [X.12, methyl 1-[[4-[5-(trifluoromethyl)-1,2,4-oxadiazol-3-yl]phenyl]methyl]pyrazole-4-carboxylate] | ≥ 80 | ≥ 80 | ≥ 80 | ≥ 80 |
| 86 to 96 | CCN(CC)C(=O)c1cnn(Cc2ccc(-c3noc(C(F)(F)F)n3)cc2)c1 [X.14, N,N-diethyl-1-[[4-[5-(trifluoromethyl)-1,2,4-oxadiazol-3-yl]phenyl]methyl]pyrazole-4-carboxamide] | ≥ 80 | ≥ 80 | ≥ 80 | ≥ 80 |
| 102 to 112 | CON(C)C(=O)c1cnn(Cc2ccc(-c3noc(C(F)(F)F)n3)cc2)c1 [X.15, N-methoxy-N-methyl-1-[[4-[5-(trifluoromethyl)-1,2,4-oxadiazol-3-yl]phenyl]methyl]pyrazole-4-carboxamide] | ≥ 80 | ≥ 80 | ≥ 80 | ≥ 80 |
| 124 to 129 | CN(C)C(=O)c1cnn(Cc2ccc(-c3noc(C(F)(F)F)n3)cc2)c1 [X.05, N,N-dimethyl-1-[[4-[5-(trifluoromethyl)-1,2,4-oxadiazol-3-yl]phenyl]methyl]pyrazole-4-carboxamide] | ≥ 80 | ≥ 80 | ≥ 80 | ≥ 80 |
| 189 to 194 | O=C(NC1CC1)c1cnn(Cc2ccc(-c3noc(C(F)(F)F)n3)cc2)c1 [X.04, N-cyclopropyl-1-[[4-[5-(trifluoromethyl)-1,2,4-oxadiazol-3-yl]phenyl]methyl]pyrazole-4-carboxamide] | ≥ 80 | ≥ 80 | ≥ 80 | ≥ 80 |
